The values that follow come from patent publication US11976054B2, “Amide derivative and preparation method therefore and use thereof in medicine” (Chengdu Baiyu Pharmaceutical Co., Ltd., priority 2019, dated 2024).

In series [1] the test system is Human monocyte cell line THP-1. Nature of the series: Detection of THP-1 cell pyroptosis (Caspase-Glo 1 Inflammasome Assay). The class given is cell-based. As to conditions: THP-1 pyroptosis, 20 nM PMA 48 h, 1 μg/mL LPS, compound 3 h. On the procedure:
Human monocyte cell line THP-1 (ATCC® TB-202TM) was cultured in RPMI-1640 culture medium containing […], 1 mM pyruvic acid, 0.05 mM β-mercaptoethanol and 10% double antibody under the culture conditions of 37° C. and […].
Cell counting was performed, THP-1 cells were seeded into a 96-well plate at 50000 per well, and 20 nM PMA was added for inducing at 37° C./5% CO2 for 48 h. The culture medium was then discarded, and 100 μL of serum-free RPMI-1640 medium containing 1 μg/mL LPS was added. 5 μL of compound or solvent control was added and 3-fold diluted in gradient from a maximum concentration of 10 μM, and 10 gradient concentrations were set. The mixtures were incubated at 37° C./5% CO2 for 3 h. After the incubation, the mixtures were centrifuged at 300 g for 5 min, and the culture medium was discarded. Pyroptosis assay was performed according to specific steps described in instructions of Caspase-Glo® 1 Inflammasome Assay kit. IC50 was calculated using GraphPad Prism7.0 software.

Series [2] can be described thus: Pharmacokinetic analysis of compounds in rats. The class given is in vivo, SD rats. To be noted: SD, rat, in vivo. As to the method: Healthy adult SD rats weighing 180-220 g were fasted (free access to water) overnight and divided into tail vein administration group and intragastric administration group. The tail vein administration group was subjected to blood collection of 0.1 mL from orbital venous plexus before the administration and 5 min, 15 min, 0.5 h, 1 h, 2 h, 4 h, 8 h, 12 h and 24 h after the administration, and plasma was separated out by centrifugation at 4° C. for 5 min and stored at −20° C. for test. The intragastric administration group was subjected to blood collection of 0.1 mL from orbital venous plexus before the administration and 5 min, 15 min, 0.5 h, 1 h, 2 h, 4 h, 8 h, 12 h and 24 h after the administration, and the subsequent treatment procedures were the same as those of the tail vein injection group. The concentration of parent drug in the plasma was determined by LC-MS/MS.

The IC50 is the concentration that gives 50% inhibition. A low value points to greater potency. The compound `C[C@@H](c1ccc2c(c1NC(=O)NS(=N)(=O)c1cc(C(C)(C)O)co1)CC2)C1CC1` (mixture of isomers) [Compound 38-2, RS- and SS-N-((3-((R)-1-cyclopropylethyl)bicyclo[4.2.0]octa-1(6),2,4-trien-2-yl)carbamoyl)-4-(2-hydroxypropan-2-yl)furan-2-sulfonimidamide] gave an IC50 in series [1] of 1000 to 5000 nM.

In turn, `CC(c1ccc2c(c1NC(=O)NS(=N)(=O)c1cnc(C(C)(C)O)s1)CCC2)C1CC1` (racemic) [Compound 20-2, (RS, SC)- and (SS, SC)-N-((5-(1-cyclopropylethyl)-2,3-dihydro-1H-inden-4-yl)carbamoyl)-2-(2-hydroxypropan-2-yl)thiazole-5-sulfonimidamide] came in with an IC50 in series [1] of 100 to 500 nM.

In turn, `Cc1oc(S(=N)(=O)NC(=O)Nc2c(C(C)C3CC3)ccc3c2CCC3)cc1C(C)(C)O` (racemic) [Compound 25-1, (RS, SC)- and (SS, SC)-N-((5-(1-cyclopropylethyl)-2,3-dihydro-1H-inden-4-yl)carbamoyl)-4-(2-hydroxypropan-2-yl)-5-methylfuran-2-sulfonimidamide] showed an IC50 in series [1] of at most 100 nM.

`Cc1oc(S(=N)(=O)NC(=O)Nc2c(C(C)C3CC3)ccc3c2CCC3)cc1C(C)(C)O` (racemic) [Compound 25-2, (RS, SC)- and (SS, SC)-N-((5-(1-cyclopropylethyl)-2,3-dihydro-1H-inden-4-yl)carbamoyl)-4-(2-hydroxypropan-2-yl)-5-methylfuran-2-sulfonimidamide] yielded an IC50 in series [1] of 100 to 500 nM.

The compound `CC(c1ccc2c(c1NC(=O)NS(=N)(=O)c1cc(C(C)(C)O)co1)CC2)C1CC1` (racemic) [Compound 36-2, (RS, SC)- and (SS, SC)-N-((3-(1-cyclopropylethyl)bicyclo[4.2.0]octa-1(6),2,4-trien-2-yl)carbamoyl)-4-(2-hydroxypropan-2-yl)furan-2-sulfonimidamide] displayed a half-inhibitory concentration (IC50) in series [1] of 1000 to 5000 nM.

For the compound `CC(c1cc(C#N)c2c(c1NC(=O)NS(=N)(=O)c1cc(C(C)(C)O)co1)CCC2)C1CC1` (racemic) [Compound 46-1, (RS, RC)- and (SS, RC)-N-((7-cyano-5-(1-cyclopropylethyl)-2,3-dihydro-1H-inden-4-yl)carbamoyl)-4-(2-hydroxypropan-2-yl)furan-2-sulfonimidamide], the IC50 in series [1] was 100 to 500 nM.

The compound `CC(c1cc(C#N)c2c(c1NC(=O)NS(=N)(=O)c1cc(C(C)(C)O)co1)CCC2)C1CC1` (racemic) [Compound 46-2, (RS, RC)- and (SS, RC)-N-((7-cyano-5-(1-cyclopropylethyl)-2,3-dihydro-1H-inden-4-yl)carbamoyl)-4-(2-hydroxypropan-2-yl)furan-2-sulfonimidamide] came in with an IC50 in series [1] of 100 to 500 nM.

`CC(c1cc(C#N)c2c(c1NC(=O)NS(=N)(=O)c1cc(C(C)(C)O)co1)CCC2)C1CC1` (racemic) [Compound 48-1, (RS, SC)- and (SS, SC)-N-((7-cyano-5-(1-cyclopropylethyl)-2,3-dihydro-1H-inden-4-yl)carbamoyl)-4-(2-hydroxypropan-2-yl)furan-2-sulfonimidamide]: the 50% inhibitory concentration (IC50) in series [1] was 100 to 500 nM.

Compound `CC(c1cc(C#N)c2c(c1NC(=O)NS(=N)(=O)c1cc(C(C)(C)O)co1)CCC2)C1CC1` (racemic) [Compound 48-2, (RS, SC)- and (SS, SC)-N-((7-cyano-5-(1-cyclopropylethyl)-2,3-dihydro-1H-inden-4-yl)carbamoyl)-4-(2-hydroxypropan-2-yl)furan-2-sulfonimidamide] gave an IC50 in series [1] of 1000 to 5000 nM.

In series [1], `CC(c1ccc2c(c1NC(=O)NS(=N)(=O)c1ccc(C(C)(C)O)s1)CCC2)C1CC1` (racemic) [Compound 51-2, (RS, SC)- and (SS, SC)-N-((5-(1-cyclopropylethyl)-2,3-dihydro-1H-inden-4-yl)carbamoyl)-5-(2-hydroxypropan-2-yl)thiophene-2-sulfonimidamide] had an IC50 of 5000 to 10000 nM.

In series [1], `CC(c1ccc2c(c1NC(=O)NS(=N)(=O)c1cc(C(C)(C)O)co1)CCC2)C1CC1` (racemic) [Compound 52-1, (RS, SC)- and (SS, SC)-N-((5-(1-cyclopropylethyl)-2,3-dihydro-1H-inden-4-yl)carbamoyl)-4-(2-hydroxypropan-2-yl)furan-2-sulfonimidamide] showed an IC50 of 1000 to 5000 nM.

In series [1], `CC(C)(O)c1ccc(S(=N)(=O)NC(=O)Nc2c(CC3CCC3)ccc3c2CCC3)s1` (racemic) [Compound 53-2, (RS)- and (SS)-N-((5-(cyclobutylmethyl)-2,3-dihydro-1H-inden-4-yl)carbamoyl)-5-(2-hydroxypropan-2-yl)thiophene-2-sulfonimidamide] registered an IC50 of 100 to 500 nM.

For the compound `CC(C)c1cccc([C@@H](C)C2CC2)c1NC(=O)NS(=N)(=O)c1cc(C(C)(C)O)co1` (mixture of isomers) [Compound 73-1, (RS, SC) and (SS, SC)-N-((2-(1-cyclopropylethyl)-6-isopropylphenyl)carbamoyl)-4-(2-hydroxypropan-2-yl)furan-2-sulfonimidamide], in series [1], the IC50 is at most 100 nM.

Consider `CC(C)c1cccc([C@@H](C)C2CC2)c1NC(=O)NS(=N)(=O)c1cc(C(C)(C)O)co1` (mixture of isomers) [Compound 73-2, (RS, SC) and (SS, SC)-N-((2-(1-cyclopropylethyl)-6-isopropylphenyl)carbamoyl)-4-(2-hydroxypropan-2-yl)furan-2-sulfonimidamide], for which the IC50 in series [1] lay within 1000 to 5000 nM.

Turning to `CC(C)c1cccc(C(C)C2CC2)c1NC(=O)NS(=N)(=O)c1cc(C(C)(C)O)co1` (racemic) [Compound 74-1, (RS, RC)- and (SS, RC)-N-((2-(1-cyclopropylethyl)-6-isopropylphenyl)carbamoyl)-4-(2-hydroxypropan-2-yl)furan-2-sulfonimidamide], the IC50 in series [1] is at most 100 nM.

Consider `CC(C)c1cccc(C(C)C2CC2)c1NC(=O)NS(=N)(=O)c1cc(C(C)(C)O)co1` (racemic) [Compound 74-2, (RS, RC)- and (SS, RC)-N-((2-(1-cyclopropylethyl)-6-isopropylphenyl)carbamoyl)-4-(2-hydroxypropan-2-yl)furan-2-sulfonimidamide], for which the IC50 in series [1] is 1000 to 5000 nM.

Regarding `C[C@@H](c1ccc2c(c1NC(=O)NS(=N)(=O)c1cc(C(C)(C)O)co1)CCC2)C1CCC1` (mixture of isomers) [Compound 80-1, (RS)- and (SS)-N-((5-((R)-1-cyclobutylethyl)-2,3-dihydro-1H-inden-4-yl)carbamoyl)-4-(2-hydroxypropan-2-yl)furan-2-sulfonimidamide], in series [1], the IC50 lay in the range of 100 to 500 nM.

In the case of `CC(C)(O)c1ncc(S(=N)(=O)NC(=O)Nc2c(CC3CCC3)ccc3c2CCC3)s1` (single isomer, unassigned) [Compound 19-1, RS- and SS-N-((5-(cyclobutylmethyl)-2,3-dihydro-1H-inden-4-yl)carbamoyl)-2-(2-hydroxypropan-2-yl)thiazole-5-sulfonimidamide], in series [1], the IC50 is 1000 to 5000 nM.

With `CC(C)(O)c1ncc(S(=N)(=O)NC(=O)Nc2c(CC3CCC3)ccc3c2CCC3)s1` (single isomer, unassigned) [Compound 19-2, RS- and SS-N-((5-(cyclobutylmethyl)-2,3-dihydro-1H-inden-4-yl)carbamoyl)-2-(2-hydroxypropan-2-yl)thiazole-5-sulfonimidamide], the IC50 in series [1] fell in the range of 100 to 500 nM.

`Cc1oc(S(=N)(=O)NC(=O)Nc2c(C(C)C3CC3)ccc3c2CCC3)cc1C(C)(C)O` (single isomer, unassigned) [Compound 24-1, RS- and SS-N-((5-(1-cyclopropylethyl)-2,3-dihydro-1H-inden-4-yl)carbamoyl)-4-(2-hydroxypropan-2-yl)-5-methylfuran-2-sulfonimidamide] returned an IC50 in series [1] of 100 to 500 nM.

`[2H]c1cc([C@@H](C)C2CC2)c(NC(=O)NS(=N)(=O)c2cc(C(C)(C)O)co2)c2c1CCC2` (single isomer, unassigned) [Compound 32-1, (RS, SC)- and (SS, SC)-N-((5-(1-cyclopropylethyl)-2,3-dihydro-1H-inden-4-yl-7-d)carbamoyl)-4-(2-hydroxypropan-2-yl)furan-2-sulfonimidamide] displayed an IC50 in series [1] of 1000 to 5000 nM.

Usually AUC stands for the area under the concentration-time curve, a measure of exposure. High values mean high exposure, low ones low exposure. Usually Vd stands for the apparent volume that relates the amount in the body to the concentration in plasma or blood. A low value points to little distribution into tissue. Broadly, the clearance is a measure of how efficiently the substance is removed, as volume per time. High values mean efficient removal, low ones inefficient removal. Broadly, the half-life is how long it takes for the measured level to halve. Lower therefore signals fast loss. Usually bioavailability stands for dose-corrected exposure relative to a reference, in per cent. What is called Cmax is the highest concentration seen after dosing. In series [2] (iv, 1 mg/kg), `CC(C)(O)c1coc(S(=O)(=O)NC(=O)Nc2c3c(cc4c2CCC4)CCC3)c1` [Control 3, 1-(1,2,3,5,6,7-hexahydro-s-indacen-4-yl)-3-[4-(1-hydroxy-1-methyl-ethyl)-furan-2-sulfonyl]urea, reference compound] had an AUC of 1400 ng·h/mL, a Vd of 0.402 L/kg, a clearance of 14.2 mL/min/kg and a half-life of 0.46 h. In series [2] (po), this compound returned a bioavailability of 36.4%. For the same compound, in series [2] (po, 10 mg/kg), the AUC came out at 5080 ng·h/mL, the Cmax is 1930 ng/mL and the half-life is 2.1 h.
